Measured values as given in patent US20050256092A1, “Antipsoriatic agent” (priority 2002, published 2005).
pIC50: −log10 of the molar value. Where two headings read alike, the source gives them in different places.

Experiments:
[1] = system: adult-human-derived keratinocytes; assay: suppression of proliferation of cultured human keratinocytes ([3H]thymidine uptake); format: cell-based; settings: for pIC50: [3H]thymidine uptake, cultured 3 days + 1 day, percentage of control, read-out: IC50 (mol/L) value, suppression of human keratinocyte proliferation
Experimental: The effect of suppressing the proliferation of cultured human keratinocytes by 2β-(3-hydroxypropyloxy)-1α,25-dihydroxyvitamin D3 (hereinafter referred to as “ED-71”) was investigated.
KGM-2 culture medium was added to each well of a 96-well plate (COSTAR 3595), and adult-human-derived keratinocytes (Clonetics) were seeded at a cell count of 1×10^3/well. Then, active vitamin D3 (1α,25-dihydroxyvitamin D3, produced by Solvay Pharmaceuticals) or ED-71 (produced by Chugai Seiyaku) was added to each well in a final concentration of 1×10^−10 mol/L, 1×10^−9 mol/L, 1×10^−8 mol/L, or 1×10^−7 mol/L. The cells were cultured in the KGM-2 culture medium at a cell concentration of 1×10^3/200 μl/well for 3 days at 37° C. in an atmosphere of 5% CO2 and 95% air. [^3H]thymidine was added in an amount of 7.4 kBq/well, and the cells were further cultured for 1 day. The culture medium was removed, and the cells were stripped off using 0.05% trypsin/EDTA (GIBCO BRL), and the amount of [^3H]thymidine taken up by the cells was measured with a liquid scintillation counter (1450 MICROBETA, Wallac). The cells cultured and treated in the same manner as described above, except for the addition of the active vitamin D3 or ED-71, were used as a control.
In FIG. 1, the [^3H]thymidine uptake into the cells treated with each drug is expressed as a percentage of the [^3H]thymidine uptake into the control cells.

[2] = system: epidermis of hairless mice; assay: epidermis thickening in hairless mice, percutaneous administration; format: in vivo; settings: single percutaneous dose, compared with active vitamin D3
From the text: (§1) The effect of ED-71 administered percutaneously and orally was investigated using hairless mice.
(§2) Percutaneous administration of a vitamin D3 derivative in hairless mice was reported to cause hyperplasia of the epidermis (British Journal of Dermatology 1995; 132; 841-852).

[3] = system: epidermis of hairless mice; assay: epidermis thickening in hairless mice, oral administration; format: in vivo; settings: administered orally for 4 days, compared with active vitamin D3
From the text: as §1, §2

| SMILES | pIC50 [1] | human keratinocyte proliferation suppressing activity, relative value with respect to active vitamin D3 ([1]; (IC50 value of active vitamin D3)/(IC50 value of ED-71)) | pIC50 ([1]; Homo sapiens, Keratinocyte) | thickening of the epidermis [2] | thickening of the epidermis [3] |
| --- | --- | --- | --- | --- | --- |
| C=C1/C(=C\C=C2/CCC[C@]3(C)[C@@H]([C@H](C)CCCC(C)(C)O)CC[C@@H]23)C[C@@H](O)C[C@@H]1O [active vitamin D3, 1α,25-dihydroxyvitamin D3, reference compound] | 7.52 | – | – | – | – |
| C=C1/C(=C\C=C2/CCC[C@@]3(C)C2CC[C@@H]3[C@H](C)CCCC(C)(C)O)C[C@@H](O)[C@@H](OCCCO)[C@@H]1O (stereo partly drawn) [ED-71, 2β-(3-hydroxypropyloxy)-1α,25-dihydroxyvitamin D3] | – | ≥ 305.23 | > 10.00 | thickened the epidermis in a lower dose than the dose of active vitamin D3 | thickened the epidermis in a lower dose than the dose of active vitamin D3 |
